Measurements as given in US7189749B2, “Substituted phenoxyacetic acids” (The Institutes for Pharmaceutical Discovery LLC, priority 1999, dated 2007).
Where two headings read alike, the source gives them in different places.

Legend:
[1] = biological target: human aldose reductase (hALR2) (Homo sapiens, UniProt P15121); assay: inhibition of human aldose reductase (hALR2), methods similar to Butera et al.; type: biochemical
Method: Representative compounds of the invention were tested for their potency, selectivity and efficacy as inhibitors of human aldose reductase.

[2] = biological target: T1, human aldehyde reductase (hALR1) (Homo sapiens, UniProt P14550); assay: inhibition of human aldehyde reductase (hALR1), methods essentially of Ishii et al.; type: biochemical; conditions: for IC50: concentration required to inhibit human aldehyde reductase activity by 50%; for hALR1/hALR2: ratio of hALR1 IC50 to hALR2 IC50, selectivity
T1 sequence (P14550 1-325): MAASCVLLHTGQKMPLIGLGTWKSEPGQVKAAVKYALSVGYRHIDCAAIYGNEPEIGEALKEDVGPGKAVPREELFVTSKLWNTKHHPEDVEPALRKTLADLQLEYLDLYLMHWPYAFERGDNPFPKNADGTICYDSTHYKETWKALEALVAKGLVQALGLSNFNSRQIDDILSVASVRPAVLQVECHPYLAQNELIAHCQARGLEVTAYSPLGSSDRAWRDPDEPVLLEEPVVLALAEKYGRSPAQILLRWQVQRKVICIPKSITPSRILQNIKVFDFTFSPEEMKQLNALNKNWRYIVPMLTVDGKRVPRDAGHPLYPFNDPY
Method: In a second assay, a number of the same compounds were tested for their ability to inhibit aldehyde reductase (hAR1), a structurally related enzyme. […] Using this assay, the concentrations required to inhibit human aldehyde reductase activity by 50% (ICSO) were determined.
Since high potency of test compounds as inhibitors of aldose reductase is desirable, low hALR2 IC50 values are sought. On the other hand, high potency of test compounds as inhibitors of aldehyde reductase is undesirable, and high hALR1 IC50s values are sought. Accordingly, the hALR1/hALR2 ratio is used to determine the selectivity of the test compounds.

[3] = concentration required to inhibit human aldose reductase activity by 50%

Row | IC50 [1, 3] [nM] | IC50 [2] [nM] | hALR1/hALR2 [2] | SMILES | also measured
1 | 24 | 5800 | 240 | Cc1cc(C(=O)NCc2ccc(Br)cc2F)c(OCC(=O)O)cc1F [Example 45, [2-(4-Bromo-2-fluoro-benzylcarbamoyl)-5-fluoro-4-methyl-phenoxy]-acetic acid] | 
2 | 33 |  |  | O=C(O)COc1cc(F)c(F)cc1C(=S)NCc1ccc(Br)cc1F [Example 36, [2-(4-Bromo-2-fluoro-benzylthiocarbamoyl)-4,5-difluoro-phenoxy]-acetic acid] | 
3 | 12 |  |  | O=C(O)COc1ccc(OC(F)(F)F)cc1C(=S)NCc1cccc([N+](=O)[O-])c1 [Example 35, [2-(3-Nitro-benzylthiocarbamoyl)-4-trifluoromethoxy-phenoxy]-acetic acid] | 
4 | 35 |  |  | O=C(O)COc1cc(Cl)ccc1C(=O)NCc1nc2cc(C(F)(F)F)ccc2s1 [Example 57, {5-Chloro-2-[(5-trifluoromethyl-benzothiazol-2-ylmethyl)-carbamoyl]-phenoxy}-acetic acid] | 
5 | 7 | 54000 |  | O=C(O)COc1cc(F)c(N2CCOCC2)cc1C(=O)NCc1cccc([N+](=O)[O-])c1 [Example 53, [2-(3-Nitro-benzylcarbamoyl)-5-fluoro-4-morpholin-4-yl-phenoxy]-acetic acid] | 
6 | 7 | 14000 | 2,000 | O=C(O)COc1cc(F)c(-c2ccccc2)cc1C(=O)NCc1cccc([N+](=O)[O-])c1 [Example 50, [5-(3-Nitro-benzylcarbamoyl)-2-fluoro-biphenyl-4-yloxy]-acetic acid] | 
7 | 37 |  |  | O=C(O)COc1ccc(Br)cc1C(=S)NCc1ccc(Br)cc1F [Example 34, [4-Bromo-2-(4-bromo-2-fluoro-benzylthiocarbamoyl)-phenoxy]-acetic acid] | 
8 | 6 | 44000 | 7,300 | O=C(O)COc1cc(F)c(Br)cc1C(=O)NCc1cccc([N+](=O)[O-])c1 [Example 49, [4-Bromo-5-fluoro-2-(3-nitro-benzylcarbamoyl)-phenoxy]-acetic acid] | 
9 | 15 | 17000 | 1,100 | O=C(O)COc1cc(F)ccc1C(=S)NCc1nc2c(F)c(F)cc(F)c2s1 [Example 55, {5-Fluoro-2-[(4,5,7-trifluoro-benzothiazol-2-ylmethyl)-thiocarbamoyl]-phenoxy}-acetic acid] | 
10 | 37 |  |  | O=C(O)COc1cc(F)c(F)cc1C(=O)NCc1ccc(Br)cc1F [Example 30, [2-(4-Bromo-2-fluoro-benzylcarbamoyl)-4,5-difluoro-phenoxy]-acetic acid] | 
11 | 11 | 12000 | 1,100 | O=C(O)COc1cc(F)c(-c2ccccc2)cc1C(=S)NCc1cccc([N+](=O)[O-])c1 [Example 51, [5-(3-Nitro-benzylthiocarbamoyl)-2-fluoro-biphenyl-4-yloxy]-acetic acid] | 
12 | 7 |  |  | Cc1cc(C(=S)NCc2cccc([N+](=O)[O-])c2)c(OCC(=O)O)cc1F [Example 48, [2-(3-Nitro-benzylthiocarbamoyl)-5-fluoro-4-methyl-phenoxy]-acetic acid] | 
13 | 6 | 35000 | 5,800 | O=C(O)COc1cc(F)ccc1C(=S)NCc1cccc([N+](=O)[O-])c1 [Example 32, [5-Fluoro-2-(3-nitro-benzylthiocarbamoyl)-phenoxy]-acetic acid] | 
14 | 8 |  |  | Cc1cc(C(=O)NCc2cccc([N+](=O)[O-])c2)c(OCC(=O)O)cc1F [Example 47, [2-(3-Nitro-benzylcarbamoyl)-5-fluoro-4-methyl-phenoxy]-acetic acid] | 
15 | 24 | 31000 | 1,300 | Cc1cc(C(=S)NCc2ccc(Br)cc2F)c(OCC(=O)O)cc1F [Example 46, [2-(4-Bromo-2-fluoro-benzylthiocarbamoyl)-5-fluoro-4-methyl-phenoxy]-acetic acid] | 
16 | 7 |  |  | N#Cc1cc(C(=O)NCc2cccc([N+](=O)[O-])c2)c(OCC(=O)O)cc1F [Example 52, [2-(3-Nitro-benzylcarbamoyl)-4-cyano-5-fluoro-phenoxy]-acetic acid] | 

The next lines start with the compound.

Row | SMILES | IC50 [1, 3] [nM] | IC50 [2] [nM] | hALR1/hALR2 [2] | also measured
17 | O=C(O)COc1cc(Cl)ccc1C(=O)NCc1ccc(Br)cc1F [Example 1, [2-(4-Bromo-2-fluoro-benzylcarbamoyl)-5-chloro-phenoxy]-acetic acid] | 30 | 14000 | 470 | 
18 | O=C(O)COc1cc(Cl)ccc1C(=O)NCc1cccc([N+](=O)[O-])c1 [Example 5, [2-(3-Nitro-benzylcarbamoyl)-5-chloro-phenoxy]-acetic acid] |  |  | >4,200 | IC50 [1]: 6 nM; inhibition at 25 µM ([2]; read-out: hALR1 (aldehyde) % inhibition @ 25 μM): 19%
19 | Cc1ccc(CNC(=O)c2ccc(F)cc2OCC(=O)O)cc1[N+](=O)[O-] [Example 29, [5-Fluoro-2-(4-methyl-3-nitro-benzylcarbamoyl)-phenoxy]-acetic acid] | 8 |  |  | 
20 | O=C(O)COc1ccc(OC(F)(F)F)cc1C(=O)NCc1cccc([N+](=O)[O-])c1 [Example 26, [2-(3-nitro-benzylcarbamoyl)-4-trifluoromethoxy-phenoxy]-acetic acid] | 9 |  |  | 
21 | O=C(O)COc1ccc(Br)cc1C(=O)NCc1ccc(Br)cc1F [Example 19, [4-Bromo-2-(4-bromo-2-fluoro-benzylcarbamoyl)-phenoxy]-acetic acid] | 64 |  |  | 
22 | O=C(O)COc1cc(F)ccc1C(=O)NCc1ccc(Br)cc1F [Example 28, [2-(4-Bromo-2-fluoro-benzylcarbamoyl)-5-fluoro-phenoxy]-acetic acid] | 55 | 6600 | 120 | 
23 | O=C(O)COc1cc(Cl)ccc1C(=O)NCc1cccc(C(F)(F)F)c1 [Example 4, [5-Chloro-2-(3-trifluoromethyl-benzylcarbamoyl)-phenoxy]-acetic acid] | 39 |  |  | 
24 | O=C(O)COc1ccc(F)cc1C(=O)NCc1ccc(Br)cc1F [Example 18, [2-(4-Bromo-2-fluoro-benzylcarbamoyl)-4-fluoro-phenoxy]-acetic acid] | 150 |  |  | 
25 | O=C(O)COc1ccccc1C(=O)NCc1ccc(Br)cc1F [Example 23, [2-(4-Bromo-2-fluoro-benzylcarbamoyl)-phenoxy]-acetic acid] | 180 |  |  | 
26 | CSc1ccc(C(=O)NCc2ccc(Br)cc2F)c(OCC(=O)O)c1 [Example 24, [2-(4-Bromo-2-fluoro-benzylcarbamoyl)-5-methylsulfanyl-phenoxy]-acetic acid] | 83 |  |  | 
27 | O=C(O)COc1cc(Cl)ccc1C(=O)NCc1cc(F)cc(C(F)(F)F)c1 [Example 11, [5-Chloro-2-(3-fluoro-5-trifluoromethyl-benzylcarbamoyl)-phenoxy]-acetic acid] | 29 |  |  | 
28 | Cc1ccc(OCC(=O)O)c(C(=O)NCc2cccc([N+](=O)[O-])c2)c1 [Example 25, [2-(3-Nitro-benzylcarbamoyl)-4-methyl-phenoxy]-acetic acid] | 11 |  | >9,100 | inhibition at 100 µM ([2]; read-out: hALR1 (aldehyde) % inhibition @ 100 μM): 48%
29 | O=C(O)COc1cc(F)ccc1C(=O)NCc1nc2c(F)c(F)cc(F)c2s1 [Example 54, {5-Fluoro-2[(4,5,7-trifluoro-benzothiazol-2-ylmethyl)carbamoyl]-phenoxy}-acetic acid] | 11 | 22000 | 2,000 | 
30 | Cc1ccc(OCC(=O)O)c(C(=O)NCc2ccc(Br)cc2F)c1 [Example 20, [2-(4-Bromo-2-fluoro-benzylcarbamoyl)-4-methyl-phenoxy]-acetic acid] | 69 | 11000 | 160 | 
31 | O=C(O)COc1cc(F)ccc1C(=O)NCc1nc2cc(C(F)(F)F)ccc2s1 [Example 56, {5-Fluoro-2-[(5-trifluoromethyl-benzothiazol-2-ylmethyl)-carbamoyl]-phenoxy}-acetic acid] | 29 | 22000 | 760 | 
32 | O=C(O)COc1cc(Cl)ccc1C(=O)NCc1ccc(Cl)c(Cl)c1 [Example 14, [5-Chloro-2-(3,4-dichloro-benzylcarbamoyl)-phenoxy]-acetic acid] | 34 | 18000 | 530 | 
33 | O=C(O)COc1cc(F)ccc1C(=O)NCc1cccc([N+](=O)[O-])c1 [Example 27, [5-Fluoro-2-(3-nitro-benzylcarbamoyl)-phenoxy]-acetic acid] | 8 | 34000 | 4,300 | 
34 | O=C(O)COc1ccc([N+](=O)[O-])cc1C(=O)NCc1ccc(Br)cc1F [Example 21, [2-(4-Bromo-2-fluoro-benzylcarbamoyl)-4-nitro-phenoxy]-acetic acid] | 200 |  |  | 
35 | O=C(O)COc1ccc(Cl)cc1C(=O)NCc1ccc(Br)cc1F [Example 17, [2-(4-Bromo-2-fluoro-benzylcarbamoyl)-4-chloro-phenoxy]-acetic acid] | 46 | 18000 | 390 | 
36 | O=C(O)COc1cc(F)ccc1C(=S)NCc1ccc(Br)cc1F [Example 33, [2-(4-Bromo-2-fluoro-benzylthiocarbamoyl)-5-fluoro-phenoxy]-acetic acid] | 34 | 33000 | 970 | 
